Experimental data: publication PMC13243568, “Massive barcode-free chemical screenings enable the discovery of bioactive macrocycles with passive membrane permeability” (Nature Communications, 2026)
“Also recorded” adds a separate entry of the source. Starred links: 1 amine or outer side, 2 acyl side, 3 side chain; linkers in the order of their positions; H or OH if unused. Positions of bridges follow the written chain, without caps; N, C: chain ends. Non-standard residues stand in square brackets, D forms with d. Residues, ends and D or L forms follow the SMILES beside them. *: point of attachment. Phenylacetyl(3,4,5-triOMe) = COc1cc(CC(=O)*)cc(OC)c1OC; Biotin = O=C1N[C@H]2[C@H](CS[C@H]2CCCCC(=O)*)N1; Benzoyl(4-SO2NH2) = NS(=O)(=O)c1ccc(C(=O)*)cc1; Tyr(3-Cl) = N[C@@H](Cc1ccc(O)c(Cl)c1)C(=O)O; X1 = O=C([C@H]1CC[C@@H](N[*:1])C1)[*:2]; oXylylene = c1ccc(C[*:2])c(C[*:1])c1; εLys = N[C@@H](CCCCN[*:1])C(=O)[*:2]

How the values were obtained:
[1] = Parallel artificial membrane permeability assay (PAMPA); format: in vitro ADME
Procedure: The plate system consisted of a 96-well microwell plate (donor wells) and a 96-well insert containing a PVDF membrane coated with tri-layers of phospholipids (acceptor wells). Permeability was measured from the bottom plate (donor wells) to the top insert (acceptor wells). Cyclic peptide or reference compound solutions were prepared at a concentration of 100 μM in 1xPBS buffer (pH 7.4) containing 1% DMSO, and 300 μl of the resulting solutions was placed into the donor wells of the PAMPA plate. Acceptor wells were prepared by adding 200 μl of PBS buffer (pH 7.4) containing 1% DMSO. The insert was stacked onto the donor plate, and the system was covered with a lid to avoid evaporation. […] Additionally, 3:2 dilutions of the 100 μM cyclic peptide stocks were prepared in 1xPBS buffer (pH 7.4) containing 1% DMSO to yield a sample corresponding to the theoretical equilibrium between donor and acceptor wells. The samples were run on the UPLC–HRMS to measure the cyclic peptide concentration representing maximum permeability. […]
Parallel artificial membrane permeability assay (PAMPA):
Permeability measurements
The insert was then stacked onto the donor […]
concentration of permeated peptides. To establish a reference for maximum permeability, 3:2 […]
the theoretical equilibrium between the donor and acceptor chambers. These equilibrium samples […]
Permeability (%) = [PeptideAcceptor ] (4)
P = VD×VA × −ln (1 − [PeptideAcceptor] ) (5) […]

WDR5-MLL PPI = target: T1, WDR5-MLL PPI (Homo sapiens, UniProt P61964); test: BLI competition assay, displacement of immobilized MLL peptide 16 from WDR5; format: binding; settings: for Binding (ratio to control): Figure S11, BLI competition, control = WDR5 without inhibitor; for inhibition of WDR5-MLL interaction, in words: 100 nM inhibitor, MLL immobilized on BLI tips; for displacement of MLL peptide from WDR5: tested at 100 and 50 nM WDR5
T1 construct: A truncated human WDR5 construct encoding amino acids 22–; SUMO (N); made in house; host or cells: E. coli BL21 (DE3) (WDR5); the peptide was made by chemical synthesis
Procedure: Purified biotinylated competitors were dissolved in the appropriate kinetic buffer and immobilized onto the streptavidin biosensors at 100 nM for 60 s. Sensors were then dipped into the kinetic buffer for 60 s, and the concentration gradient of macrocyclic hit in a constant concentration protein solution for 600 s. Measurements were carried out at 20 °C. […]
was immobilized for 60 sec. at 100 nM. […]
were reincubated and association was measured for 600 sec. […]
Biolayer interferometry (BLI): Biolayer interferometry (BLI) assays were performed in 96 well plates (GreinerBio -One, polypropylene, flat ‐bottom, chimney well) using an Octet R4 system (SATORIUS).
Wells were filled with 200 μL with kinetic buffer, compound solution or protein solution , purifi ed compounds . Proteins were dissolved in the appropriate kinetic buffer specific for each target (CAIX:
Tween -20, 1 mg/mL BSA [0.1% w/v]). […]
Measurements were carried out at 20 °C.
Competition assay: Purified biotinylated competitor were dissolved in appropriate kinetic buffer and immobilized onto the streptavidin biosensors at 100nM for 60s. Sensors were then dipped into kinetic buffer for 60 s and concentration gradient of macrocyclic hit in constant concentration protein solution for 600s. Measurements were carried out at 20 °C.

MV-4:11 cells = test: Cell viability, CellTiter-Glo, MV-4:11; format: cell-based; settings: 72 h
Procedure: 5000 HL-60 (DSMZ ACC3), 3000 MV411 (DSMZ ACC554), and 7000 MOLM13 (DSMZ ACC554) cells were plated into an opaque-colored 96-well plate (Greiner Bio-One cat no 655083). […] About 100 μl CellTiter-Glo reagent was added to each well, and the plates were shaken for 5 min at 500 rpm. Luminescent signal was stabilized by incubating the plates for 10 min at RT. Luminescence was measured on the Victor X3 plate reader (Perkin Elmer).
were plated into an opaque colored 96 wells plate (Greiner Bio -one cat no 655083). Cells were plated
no G7570). 100 µl CellTiter-Glo reagent was added to each well and plates were shaken 5 minutes at 500 rpm. Luminescent signal was stabilized by incubating the plates 10 minutes at RT. Luminescence was measured on the Victor X3 plate reader (Perkin Elmer).

[2] = Serum stability assay in 25% human serum; settings: pH 7.4
Procedure: The mixture was vortexed immediately after protein addition. […] After incubating on ice for 1 h, the samples were centrifuged at 10,000×g for 5 min. The supernatant was then injected into the UPLC–HRMS (20 μL) and the AUC of both peptide and IS calculated by analyzing the XIC curve for each exact mass value. For each run and timepoint, the peptide AUC was then normalized to the IS AUC.
vortexed immediately after protein addition. At different time points, a sample was retrieved and the
degradation reaction was quenched by the addition of 20% trichloroacetic acid (w/w) in 1x PBS
After incubating on ice for 1h , the samples were centrifuged at
10,000 rpms for 5 min. The supernatant was then injected into the UPLC -HRMS and the AUC of both
peptide and IS by analyzing the XIC curve for each exact mass value. For each run and timepoint, the peptide AUC was then normalized to the IS AUC . The relative stability values were then plotted using
Half -life times (t 1/2) were
calculated at the intersection of the curve with y=50%.

CAIX = target: T2, CAIX (Homo sapiens, UniProt Q16790); test: BLI direct binding assay against CAIX; settings: biotinylated hit immobilized on streptavidin sensor, CAIX in solution; curves did not reach saturation; read-out: kinetic KD (BLI)
T2 construct: Anhydrase IX (38-414), His,Avitag (CA9H82E3); His; Avitag (biotinylated); purchased ACROBiosystems CA9H82E3
Procedure: Biolayer interferometry (BLI) assays were performed in 96-well plates (GreinerBio-One, polypropylene, flat-bottom, chimney well) using an Octet R4 system (SATORIUS). Wells were filled with 200 μL of kinetic buffer, compound solution or protein solution, purified compounds. Proteins were dissolved in the appropriate kinetic buffer specific for each target (CAIX: 1× PBS, 0.02% Tween-20, 1 mg/mL BSA [0.1% w/v]; WDR5: 20 mM Tris, 500 mM NaCl, pH 8.0, 0.02% Tween-20, and 1 mg/mL BSA [0.1% w/v]).
Purified biotinylated compounds were dissolved in an appropriate kinetic buffer and immobilized onto the streptavidin biosensor for 60 s. Sensors were then dipped into the kinetic buffer for 60 s, a concentration gradient of protein solution for 300 s and into the kinetic buffer for 300 s. Measurements were carried out at 20 °C.
Table S2: ASMS buffer summary.
B Biotinylated CAIX (1.5 μM) in A Biotinylated WDR5 (1.5 μM) in A […]
μM d-biotin 0.02% Tween-20, 400 μM biotin
D 10% FBS, 1x PBS 20m mM Tris, 500 mM NaCl, pH 8, 10% FBS, E 10 fmol/member library in buffer D 10 fmol/member library in buffer D F 1x PBS 20m mM Tris, 500 mM NaCl, pH 8
G 6M Guanidine HCl, 200 mM phosphate 6M Guanidine HCl, 200 mM phosphate buffer, pH 6.8, 10 mM TCEP HCl buffer, pH 6.8, 10 mM TCEP HCl
Sample preparation after AS: Following the affinity selection, samples were desalted using StageTips. […]

SMILES: COc1cc(CC(=O)N[C@H]2CSCc3cccc(c3)CSCCNC(=O)[C@H](Cc3c[nH]c4ccccc34)NC(=O)[C@H](CCCNC(=N)N)NC(=O)[C@H]3CC[C@H](C3)NC2=O)cc(OC)c1OC [Compound 18Δ]
- permeability (PAMPA) ([1]; PAMPA): 11%

SMILES: COc1cc(CC(=O)N[C@H]2CSCc3ccccc3CSCCNC(=O)[C@H](Cc3c[nH]c4ccccc34)N(C)C(=O)[C@H](CCCNC(=N)N)NC(=O)[C@H]3CC[C@H](C3)NC2=O)cc(OC)c1OC [s7]
- Binding (ratio to control) (WDR5-MLL PPI): 0.83
- passive permeability (PAMPA), in words ([1]; PAMPA): reduced permeability

SMILES: CC(=O)N[C@H]1CSSC[C@@H](C(N)=O)NC(=O)[C@H](Cc2c[nH]c3ccccc23)NC(=O)[C@H](CCCNC(=N)N)NC(=O)[C@H]2CC[C@H](C2)NC1=O [Compound 15] (Ac-C[X1]RWC-NH2; disulfide 1-5; C-terminus assumed)
- inhibition of WDR5-MLL interaction, in words (WDR5-MLL PPI; WDR5 50 nM): reduced (yet not abolished) activity; also recorded: maintained partial inhibitory activity

SMILES: CCCCCC(C)C(=O)N[C@H]1CSCc2ccccc2CSCCNC(=O)[C@H](Cc2c[nH]c3ccccc23)NC(=O)[C@H](CCCNC(=N)N)NC(=O)[C@H]2CC[C@H](C2)NC1=O (stereo partly shown) [Compound 27]
- displacement of MLL peptide from WDR5 (WDR5-MLL PPI): ≥ 50%
- permeability (PAMPA) ([1]; 100 µM, 18 h incubation, RT): 72%

SMILES: N=C(N)NCCC[C@@H]1NC(=O)[C@H]2CC[C@H](C2)NC(=O)[C@@H](NC(=O)Cc2cc(F)c(F)cc2F)CSCc2ccccc2CSCCNC(=O)[C@H](Cc2c[nH]c3ccccc23)NC1=O [Compound 23]
- displacement of MLL peptide from WDR5 (WDR5-MLL PPI): ≥ 50%
- permeability (PAMPA) ([1]; 100 µM, 18 h incubation, RT): 45%

SMILES: COc1cc(CC(=O)N[C@H]2CSSC[C@@H](C(N)=O)NC(=O)[C@H](Cc3c[nH]c4ccccc34)NC(=O)[C@H](CCCNC(=N)N)NC(=O)[C@H]3CC[C@H](C3)NC2=O)cc(OC)c1OC [Compound 14] ({Phenylacetyl(3,4,5-triOMe)}-C[X1]RWC-NH2; disulfide 1-5; C-terminus assumed)
- inhibition of WDR5-MLL interaction, in words (WDR5-MLL PPI; WDR5 50 nM): maintains full activity; also recorded: no association was detected; also recorded: comparable inhibitory potency
- IC50 (WDR5-MLL PPI; 16 immobilized at 100 nM, WDR5 50 nM, lower detection limit 25 nM, read-out: IC50, inhibition of WDR5-MLL PPI (BLI competition)): < 25 nM
- permeability (PAMPA) ([1]; PAMPA): < 1%

SMILES: N=C(N)NCCC[C@@H]1NC(=O)[C@H]2CC[C@H](C2)NC(=O)[C@@H](NC(=O)CCc2ccc(Br)cc2)CSCc2ccccc2CSCCNC(=O)[C@H](Cc2c[nH]c3ccccc23)NC1=O [Compound 28]
- displacement of MLL peptide from WDR5 (WDR5-MLL PPI): ≥ 50%

SMILES: COc1cc(CC(=O)N[C@H]2CSCc3ccc(cc3)CSCCNC(=O)[C@H](Cc3c[nH]c4ccccc34)NC(=O)[C@H](CCCNC(=N)N)NC(=O)[C@H]3CC[C@H](C3)NC2=O)cc(OC)c1OC [Compound 19Δ]
- permeability (PAMPA) ([1]; PAMPA): < 5%

SMILES: N=C(N)NCCC[C@@H]1NC(=O)[C@H]2CC[C@H](C2)NC(=O)[C@@H](NC(=O)Cc2ccccc2Br)CSCc2ccccc2CSCCNC(=O)[C@H](Cc2c[nH]c3ccccc23)NC1=O [Compound 26]
- displacement of MLL peptide from WDR5 (WDR5-MLL PPI): ≥ 50%

SMILES: COc1cc(CC(=O)N[C@H]2CSCc3ccccc3CSCCNC(=O)[C@H](Cc3c[nH]c4ccccc34)NC(=O)[C@H](CCCNC(=N)N)NC(=O)[C@H]3CC[C@H](C3)NC2=O)cc(OC)c1OC [Compound 17Δ]
- Permeability (%) ([1]; PAMPA): 17.17%
- permeability (PAMPA) ([1]; PAMPA): 16%
- inhibition of MV-4:11 cell proliferation, in words (MV-4:11 cells): did not inhibit cancer cell proliferation

SMILES: COc1cc(CC(=O)N[C@H]2CSCc3ccc(cc3)-c3ccc(cc3)CSCCNC(=O)[C@H](Cc3c[nH]c4ccccc34)NC(=O)[C@H](CCCNC(=N)N)NC(=O)[C@H]3CC[C@H](C3)NC2=O)cc(OC)c1OC [Compound 20Δ]
- permeability (PAMPA) ([1]; PAMPA): < 5%

SMILES: COc1cc(CC(=O)N[C@H]2CSCc3ccccc3CSC[C@@H](C(N)=O)NC(=O)[C@H](Cc3c[nH]c4ccccc34)NC(=O)[C@H](CCCNC(=N)N)NC(=O)[C@H]3CC[C@H](C3)NC2=O)cc(OC)c1OC [Compound 17] ({Phenylacetyl(3,4,5-triOMe)}-C[X1]RWC-NH2; linker 1-5 via oXylylene; C-terminus assumed)
- inhibition of WDR5-MLL interaction, in words (WDR5-MLL PPI; WDR5 50 nM): retained strong inhibition potency

SMILES: COc1cc(CC(=O)N(C)[C@H]2CSCc3ccccc3CSCCNC(=O)[C@H](Cc3c[nH]c4ccccc34)NC(=O)[C@H](CCCNC(=N)N)NC(=O)[C@H]3CC[C@H](C3)NC2=O)cc(OC)c1OC [s5]
- Binding (ratio to control) (WDR5-MLL PPI): 0.37
- passive permeability (PAMPA), in words ([1]; PAMPA): reduced permeability

SMILES: N=C(N)NCCC[C@@H]1NC(=O)[C@H]2CC[C@H](C2)NC(=O)[C@@H](NC(=O)c2ccc(Cl)s2)CSCc2ccccc2CSCCNC(=O)[C@H](Cc2c[nH]c3ccccc23)NC1=O [Compound 25]
- displacement of MLL peptide from WDR5 (WDR5-MLL PPI): ≥ 50%
- permeability (PAMPA) ([1]; 100 µM, 18 h incubation, RT): 51%
- remaining at 24 h, 25 μM [2]: > 50%

SMILES: N=C(N)NCCC[C@@H]1NC(=O)[C@H](Cc2ccc(O)c(Cl)c2)NC(=O)[C@H](CCCCN)NC(=O)[C@@H](NC(=O)c2ccc(S(N)(=O)=O)cc2)CSSC[C@@H](C(=O)N[C@@H](CCCCN)C(=O)NCCCC[C@H](N)C(=O)NCCCC[C@H](N)C(=O)N[C@@H](CCCCNC(=O)CCCC[C@@H]2SC[C@@H]3NC(=O)N[C@@H]32)C(N)=O)NC1=O [Compound 7] ({Benzoyl(4-SO2NH2)}-CK[Tyr(3-Cl)]RCK[εLys][εLys]K(Biotin)-NH2; disulfide 1-5)
- Kd (CAIX): 1 nM
